Test results taken from PubChem BioAssay AID248 (DTP/NCI, 2004).
Several values for one entry are separate records, joined by “and”; a condition that tells them apart may be missing. Identical values can stand only once. Toxic doses and inconclusive results are not listed. Cut-off read from the data, not from the text of the source: active = T/C of 150% or more; inactive = T/C below 125%.

System: L1210 leukemia ip in BDF1 mice, survival T/C
Assay: NCI In Vivo Anticancer Drug Screen. Data for tumor model L1210 Leukemia (intraperitoneal) in B6D2F1 (BDF1) mice
Conditions: endpoint: mean survival time, higher = longer survival
In short: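 Value reflects the ratio of survival in compound-treated mice to survival in vehicle-treated controls, with both groups carrying the same transplanted tumor.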

[1] = dose: 100.0 mg/kg/injection, schedule: Q04DX003 (ip), vehicle: saline
[2] = dose: 200.0 mg/kg/injection, schedule: Q04DX003 (ip), vehicle: saline
[3] = dose: 400.0 mg/kg/injection, schedule: Q04DX003 (ip), vehicle: saline
[4] = dose: 100.0 mg/kg/injection, schedule: Q01DX001 (ip), vehicle: saline
[5] = dose: 200.0 mg/kg/injection, schedule: Q01DX001 (ip), vehicle: saline
[6] = dose: 100.0 mg/kg/injection, schedule: Q01DX009 (ip), vehicle: Klucel (hydroxypropylcellulose) (HPC)
[7] = dose: 200.0 mg/kg/injection, schedule: Q01DX009 (ip), vehicle: Klucel (hydroxypropylcellulose) (HPC)
[8] = dose: 400.0 mg/kg/injection, schedule: Q01DX009 (ip), vehicle: Klucel (hydroxypropylcellulose) (HPC)
[9] = dose: 25.0 mg/kg/injection, schedule: Q01DX009 (ip), vehicle: Klucel (hydroxypropylcellulose) (HPC)
[10] = dose: 50.0 mg/kg/injection, schedule: Q01DX009 (ip), vehicle: Klucel (hydroxypropylcellulose) (HPC)
[11] = dose: 100.0 mg/kg/injection, schedule: Q04DX003 (ip), vehicle: Klucel (hydroxypropylcellulose) (HPC)
[12] = dose: 200.0 mg/kg/injection, schedule: Q04DX003 (ip), vehicle: Klucel (hydroxypropylcellulose) (HPC)
[13] = dose: 400.0 mg/kg/injection, schedule: Q04DX003 (ip), vehicle: Klucel (hydroxypropylcellulose) (HPC)
[14] = dose: 100.0 mg/kg/injection, schedule: Q01DX009 (ip), vehicle: saline with Tween-80
[15] = dose: 200.0 mg/kg/injection, schedule: Q01DX009 (ip), vehicle: saline with Tween-80
[16] = dose: 400.0 mg/kg/injection, schedule: Q01DX009 (ip), vehicle: saline with Tween-80
[17] = dose: 100.0 mg/kg/injection, schedule: Q04DX002 (ip), vehicle: saline with Tween-80

Measured: T/C

N#Cc1ccccc1N=NNc1ccc(-c2nc(N)nc(N)n2)cc1
inactive: [1] 94 % of control | [2] 89 % of control | [3] 89 % of control

Oc1cccc(C2=NNC(c3cccc(O)c3)=NN2)c1
inactive: dose: 100.0 mg/kg/injection, schedule: Q04DX003 (ip), vehicle: gum acacia 93 % of control | dose: 200.0 mg/kg/injection, schedule: Q04DX003 (ip), vehicle: gum acacia 89 % of control | dose: 400.0 mg/kg/injection, schedule: Q04DX003 (ip), vehicle: gum acacia 86 % of control

CN(C)C1CCC(N=Nc2cc([N+](=O)[O-])ccc2C(=O)O)CC1 (stereo not drawn)
inactive: dose: 75.0 mg/kg/injection, schedule: Q01DX001 (ip), vehicle: acetone 105 % of control | dose: 150.0 mg/kg/injection, schedule: Q01DX001 (ip), vehicle: acetone 97 % of control | dose: 300.0 mg/kg/injection, schedule: Q01DX001 (ip), vehicle: acetone 90 % of control

COc1cc(C)ccc1C1OC(=O)c2c1ccc(OC)c2OC (stereo not drawn)
inactive: [4] 97 % of control | [5] 101 % of control | dose: 400.0 mg/kg/injection, schedule: Q01DX001 (ip), vehicle: saline 92 % of control

CCCCCCNC(=O)c1ccc(C(=O)NCCCCCC)cc1
inactive: [6] 94 % of control and 101 % of control | [7] 102 % of control | [8] 95 % of control and 90 % of control

NC1(C(=O)NCC(=O)O)C2CC3CC(C2)CC1C3 (stereo not drawn)
inactive: [9] 94 % of control | [10] 100 % of control | [6] 97 % of control and 99 % of control | [7] 103 % of control | [8] 102 % of control

N#CC(C#N)N=Nc1ccc(Cl)cc1Cl
inactive: dose: 2.5 mg/kg/injection, schedule: Q04DX002 (ip), vehicle: Klucel (hydroxypropylcellulose) (HPC) 98 % of control | dose: 5.0 mg/kg/injection, schedule: Q04DX002 (ip), vehicle: Klucel (hydroxypropylcellulose) (HPC) 102 % of control | dose: 10.0 mg/kg/injection, schedule: Q04DX002 (ip), vehicle: Klucel (hydroxypropylcellulose) (HPC) 98 % of control

CC1=CP(=O)(O)CC1
inactive: dose: 50.0 mg/kg/injection, schedule: Q01DX009 (ip), vehicle: saline 113 % of control | dose: 100.0 mg/kg/injection, schedule: Q01DX009 (ip), vehicle: saline 103 % of control | [1] 95 % of control | dose: 200.0 mg/kg/injection, schedule: Q01DX009 (ip), vehicle: saline 98 % of control | [2] 93 % of control

FC(F)(F)c1ccc2c(c1)N(CCCNCCN1CCOCC1)c1ccccc1S2
inactive: dose: 3.12 mg/kg/injection, schedule: Q01DX009 (ip), vehicle: saline 117 % of control | dose: 6.25 mg/kg/injection, schedule: Q01DX009 (ip), vehicle: saline 101 % of control | dose: 12.5 mg/kg/injection, schedule: Q01DX009 (ip), vehicle: saline 101 % of control | dose: 25.0 mg/kg/injection, schedule: Q01DX009 (ip), vehicle: saline 90 % of control | dose: 25.0 mg/kg/injection, schedule: Q04DX003 (ip), vehicle: saline 102 % of control | dose: 50.0 mg/kg/injection, schedule: Q04DX003 (ip), vehicle: saline 123 % of control

COc1ccc(C2OC23CCCc2ccccc2C3=O)cc1 (stereo not drawn)
inactive: [11] 95 % of control | [12] 97 % of control | [13] 89 % of control

Cc1ccc(S(=O)(=O)N2C(=O)CCC2C(=O)O)cc1 (stereo not drawn)
inactive: dose: 100.0 mg/kg/injection, schedule: Q01DX001 (ip), vehicle: saline with Tween-80 100 % of control | [14] 98 % of control | dose: 200.0 mg/kg/injection, schedule: Q01DX001 (ip), vehicle: saline with Tween-80 96 % of control | [15] 96 % of control | dose: 400.0 mg/kg/injection, schedule: Q01DX001 (ip), vehicle: saline with Tween-80 97 % of control | [16] 102 % of control

CCOc1cc(/C=N\NC(=O)CCCC(=O)N/N=C/c2ccc(O)c(OCC)c2)ccc1O
inactive: dose: 200.0 mg/kg/injection, schedule: Q01DX001 (ip), vehicle: carboxymethylcellulose (CMC) 95 % of control

O=C(Nc1ccc(F)cc1)c1cccc(C(=O)Nc2ccc(F)cc2)c1
inactive: dose: 25.0 mg/kg/injection, schedule: Q04DX003 (ip), vehicle: saline with Tween-80 96 % of control | dose: 50.0 mg/kg/injection, schedule: Q04DX003 (ip), vehicle: saline with Tween-80 93 % of control | dose: 100.0 mg/kg/injection, schedule: Q04DX003 (ip), vehicle: saline with Tween-80 95 % of control and 87 % of control

O=C(Nc1ccc(Cl)cc1)Oc1ccc2ccccc2c1
inactive: [1] 103 % of control | [2] 92 % of control | [3] 97 % of control

Cc1ccnc2c([N+](=O)[O-])cccc12
inactive: dose: 75.0 mg/kg/injection, schedule: Q01DX001 (ip), vehicle: other 102 % of control | [17] 103 % of control | dose: 150.0 mg/kg/injection, schedule: Q01DX001 (ip), vehicle: other 102 % of control | dose: 200.0 mg/kg/injection, schedule: Q04DX002 (ip), vehicle: saline with Tween-80 109 % of control | dose: 300.0 mg/kg/injection, schedule: Q01DX001 (ip), vehicle: other 103 % of control

C/C(=C1/SC(=S)NC1=O)c1ccccc1O
inactive: [4] 104 % of control | [5] 104 % of control

C/C=C\c1ccc(OCCOC(=O)Nc2cccc(C(F)(F)F)c2)c(OC)c1
inactive: dose: 50.0 mg/kg/injection, schedule: Q01DX009 (ip), vehicle: saline with Tween-80 102 % of control | [14] 98 % of control and 91 % of control | [15] 95 % of control and 90 % of control | [16] 98 % of control

CC1=CC(C(=O)O)P(C)(=O)C1 (stereo not drawn)
inactive: [17] 92 % of control | dose: 400.0 mg/kg/injection, schedule: Q04DX002 (ip), vehicle: saline with Tween-80 88 % of control

S=C=NC1CCC(CC2CCCCC2)CC1 (stereo not drawn)
inactive: [9] 105 % of control | [10] 94 % of control | [6] 93 % of control and 96 % of control | [11] 98 % of control | [12] 101 % of control | [13] 103 % of control

COc1ccc2nc3cc(Cl)ccc3c(NCCCSCCCl)c2n1
inactive: dose: 2.0 mg/kg/injection, schedule: Q01DX009 (ip), vehicle: saline 116 % of control | dose: 8.0 mg/kg/injection, schedule: Q01DX009 (ip), vehicle: saline 109 % of control

Brc1ccc(C#Cc2ccccc2)cc1
inactive: [6] 100 % of control | [7] 100 % of control | [8] 108 % of control

C/C(=N\Nc1ccc([N+](=O)[O-])cc1[N+](=O)[O-])C(F)(F)F
inactive: dose: 100.0 mg/kg/injection, schedule: Q01DX009 (ip), vehicle: saline sonified 95 % of control | [11] 94 % of control | dose: 200.0 mg/kg/injection, schedule: Q01DX009 (ip), vehicle: saline sonified 98 % of control | [12] 104 % of control | dose: 400.0 mg/kg/injection, schedule: Q01DX009 (ip), vehicle: saline sonified 95 % of control | [13] 104 % of control

CC(=O)COc1ccccc1NC(C)=O
inactive: [14] 101 % of control | [15] 106 % of control | [16] 109 % of control

NNC(=O)C(N)Cc1ccccc1 (stereo not drawn)
inactive: [4] 101 % of control | [5] 105 % of control

CCOC(=O)c1ccc(NC(=O)Oc2cccc(NC(C)=O)c2)cc1
inactive: [6] 92 % of control | [7] 95 % of control | [8] 92 % of control
